# US8901125B2, “Substituted bicyclic alkoxy pyrazole analogs as allosteric modulators of mGluR5 receptors” (Vanderbilt University, priority 2012, dated 2014)
# pEC50: −log10 of the molar value.
# Columns and labels:
# [1] = molecular target: human mGluR5a receptor (Homo sapiens, UniProt P41594); assay: Cell-based functional assay (Ca2+ mobilization, FDSS), potentiation of glutamate EC20 response; conditions: H10H cell line; for Emax: maximum % effect in the concentration-response curve as percent of maximal glutamate response, glutamate EC20; for pEC50: potentiation in presence of glutamate EC20, concentration in mol/L
# Chain of human mGluR5a receptor (P41594 21-1180 isoform P41594-2 limits assumed): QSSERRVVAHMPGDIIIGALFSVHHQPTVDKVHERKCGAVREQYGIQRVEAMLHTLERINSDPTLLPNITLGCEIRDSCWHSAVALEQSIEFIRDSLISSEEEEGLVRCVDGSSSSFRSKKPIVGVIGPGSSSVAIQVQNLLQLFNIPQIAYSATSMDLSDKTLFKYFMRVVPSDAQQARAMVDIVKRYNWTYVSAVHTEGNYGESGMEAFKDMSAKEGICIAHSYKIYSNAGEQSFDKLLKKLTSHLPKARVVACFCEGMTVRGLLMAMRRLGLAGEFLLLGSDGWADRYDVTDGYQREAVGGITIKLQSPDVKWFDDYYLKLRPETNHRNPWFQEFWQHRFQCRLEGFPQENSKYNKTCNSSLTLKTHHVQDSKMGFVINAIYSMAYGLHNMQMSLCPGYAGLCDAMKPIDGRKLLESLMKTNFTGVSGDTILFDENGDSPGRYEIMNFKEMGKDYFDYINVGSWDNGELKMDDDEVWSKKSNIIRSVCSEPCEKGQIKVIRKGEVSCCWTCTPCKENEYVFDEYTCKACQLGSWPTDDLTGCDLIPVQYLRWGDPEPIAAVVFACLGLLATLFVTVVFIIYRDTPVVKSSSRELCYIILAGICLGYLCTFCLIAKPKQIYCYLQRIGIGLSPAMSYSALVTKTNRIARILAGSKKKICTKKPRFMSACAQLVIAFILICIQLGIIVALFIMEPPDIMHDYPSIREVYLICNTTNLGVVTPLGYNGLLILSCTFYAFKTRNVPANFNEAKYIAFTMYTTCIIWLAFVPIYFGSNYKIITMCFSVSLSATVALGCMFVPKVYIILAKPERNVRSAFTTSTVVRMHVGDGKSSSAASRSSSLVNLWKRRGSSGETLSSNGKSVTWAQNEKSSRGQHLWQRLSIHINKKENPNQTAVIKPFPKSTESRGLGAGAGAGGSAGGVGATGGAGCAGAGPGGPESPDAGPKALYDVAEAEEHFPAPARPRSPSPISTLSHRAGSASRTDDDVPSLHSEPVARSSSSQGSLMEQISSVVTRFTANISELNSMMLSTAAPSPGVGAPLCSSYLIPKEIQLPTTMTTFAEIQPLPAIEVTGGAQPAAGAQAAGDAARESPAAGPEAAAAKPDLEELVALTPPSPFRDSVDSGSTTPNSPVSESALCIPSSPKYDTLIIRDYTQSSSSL
# Text: Human mGluR5a cDNA in pCMV6-XL6 mammalian expression plasmid was purchased from OriGene Technologies, Inc. (catalogue number SC326357) and subcloned into pcDNA3.1(−). Human embryonic kidney (HEK)293A cells were then transfected with human mGluR5a pcDNA3.1(−) using LipofectAmine-2000 (Invitrogen) and monoclones were selected and tested for functional response using a Ca^2+ mobilization assay. Monoclones were named for the species (“H” for human) plus the location on the plate (e.g. “10H”).
# HEK cells transfected with the human mGluR5a receptor (H10H or H12H cell line) were plated at 15,000 cells/well in clear-bottomed poly-D-lysinecoated assay plates (BD Falcon) in glutamate-glutamine-free growth medium and incubated overnight at 37° C. and 5% CO2. Cell-lines used were either the H10H or H12H cell-lines expressing the human mGluR5 receptor. The following day, the growth medium was removed and the cells were washed with assay buffer containing 1× Hank's balanced salt solution (Invitrogen, Carlsbad, Calif.), 20 mM HEPES, 2.5 mM probenecid, pH 7.4 and left with 20 μL of this reagent. Following this step, the cells were loaded with calcium indicator dye, fluo-4 AM, to a final concentration of 2 μM and incubated for 40-45 min at 37° C. The dye solution was removed and replaced with assay buffer. Cell plates were held for 10-15 min at room temperature and were then loaded into the Functional Drug Screening System 6000 (FDSS 6000, Hamamatsu, Japan).
# After establishment of a fluorescence baseline for about 3 seconds, the compounds of the present invention were added to the cells, and the response in cells was measured. 2.3 minutes later an EC20 concentration of the mGluR5 receptor agonist glutamate was added to the cells, and the response of the cells was measured for about 1.7 minutes. All test compounds were dissolved and diluted to a concentration of 10 mM in 100% DMSO and then serially diluted into assay buffer for a 2× stock solution in 0.6% DMSO; stock compounds were then added to the assay for a final DMSO concentration of 0.3% after the first addition to the assay well. Calcium fluorescence measures were recorded as fold over basal fluorescence; raw data was then normalized to the maximal response to glutamate. Potentiation of the agonist response of the mGluR5 receptor in the present invention was observed as an increase in response to submaximal concentrations of glutamate in the presence of compound compared to the response to glutamate in the absence of compound.
# The concentration-response curves of compounds of the present invention, obtained in the presence of EC20 of mGluR5 receptor agonist glutamate to determine positive allosteric modulation, were generated using Microsoft Excel with IDBS XLFit add-ins. The raw data file containing all time points was used as the data source in the analysis template. This was saved by the FDSS as a tab-delimited text file. Data were normalized using a static ratio function (F/F0) for each measurement of the total 350 values per well divided by each well's initial value. Data was then reduced as to peak amplitudes (Max Initial Min) using a time range that starts approximately 1 second after the glutamate EC20 addition and continues for approximately 40 seconds. This is sufficient time to capture the peak amplitude of the cellular Calcium response. Individual amplitudes were expressed as % EMax by multiplying each amplitude by 100 and then dividing the product by the mean of the amplitudes derived from the glutamate ECMax-treated wells. pEC50 values for test compounds were generated by fitting the normalized values versus the log of the test compound concentration (in mol/L) using a 4 parameter logistic equation where none of the parameters were fixed. Each of the three values collected at each concentration of test compound were weighted evenly. Individual values falling outside the 95% prediction limits of the curve fit were automatically excluded from the fit. […]
Compound,Emax [1],pEC50 [1],melting point
COc1ccc(COc2cc3n(n2)CCN(c2ccc(F)cc2)C3=O)cc1 [Example B30],28%,< 4.52,164.6 °C
C[C@@H]1Cn2nc(OCc3ccccc3)cc2C(=O)N1Cc1ccccc1 [Example B61],59%,6.59,–
COc1ccc(F)cc1CN1CCn2nc(OCc3ccccc3)cc2C1=O [Example B68],58%,6.75,–
Cc1cccc(N2CCn3nc(OCc4ccccc4)cc3C2=O)n1 [Example B14],53%,6.76,152.1 °C
"O=C1c2cc(OCc3ccccc3)nn2CCCN1Cc1ccccc1 [Example B58, 5-benzyl-2-(benzyloxy)-5,6,7,8-tetrahydro-4H-pyrazolo[1,5-a][1,4]diazepin-4-one]",57%,6.42,–
O=C1c2cc(OCc3ccccc3)nn2CCN1c1ccncc1 [Example B13],37%,< 5.00,167.2 °C
Cc1nccc(N2CCn3nc(OCc4ccccc4)cc3C2=O)n1 [Example B19],47%,6.06,182.8 °C
"COc1c(Cl)cccc1CN1CCn2nc(OCc3ccccc3)cc2C1=O [Example B57, 2-(benzyloxy)-5-(3-chloro-2-methoxybenzyl)-6,7-dihydropyrazolo[1,5-a]pyrazin-4(5H)-one]",42%,7.12,232.7 °C
"O=C1c2cc(OCc3ccccc3)nn2CCN1c1ccc(F)cc1 [Example B1, 2-(benzyloxy)-5-(4-fluorophenyl)-6,7-dihydropyrazolo[1,5-a]pyrazin-4(5H)-one]",54%,6.74,–
O=C1c2cc(OCc3ccccc3)nn2CCN1c1cccc(F)c1 [Example B5],44%,6.94,131.5 °C
O=C1c2cc(OCc3ccncc3)nn2CCN1c1ccc(F)cc1 [Example B31],26%,< 4.52,172.9 °C
"CC1CN(Cc2ccccc2)C(=O)c2cc(OCc3ccccc3)nn21 (single isomer, unassigned) [Example B62]",61%,6.99,–
O=C1c2cc(OCc3ccccc3)nn2CCN1c1ccccn1 [Example B11],25%,< 5.00,153.5 °C
COc1cccc(F)c1CN1CCn2nc(OCc3ccccc3)cc2C1=O [Example B70],52%,6.37,162.2 °C
"O=C1c2cc(OCc3ccccc3)nn2CCCN1c1ccc(F)cc1 [Example B49, 2-(benzyloxy)-5-(4-fluorophenyl)-5,6,7,8-tetrahydro-4H-pyrazolo[1,5-a][1,4]diazepin-4-one]",47%,6.26,140.2 to 140.7 °C
COc1cc(N2CCn3nc(OCc4ccccc4)cc3C2=O)ccc1F [Example B8],45%,6.88,145.3 °C
COc1cc(CN2CCn3nc(OCc4ccccc4)cc3C2=O)ccc1F [Example B69],63%,6.16,115.1 °C
Cc1cncc(N2CCn3nc(OCc4ccccc4)cc3C2=O)n1 [Example B22],43%,6.15,215.2 °C
COc1ccccc1COc1cc2n(n1)CCN(c1ccc(F)cc1)C2=O [Example B29],36%,5.92,140.2 °C
O=C1c2cc(OCc3ccccc3)nn2CCCN1CC1CC1(F)F (centres unmarked) [Example B73],20%,< 4.52,–
O=C1c2cc(OCc3ccccc3)nn2CCN1CC1CCC1 [Example B56],52%,5.97,–

Compound,Emax [1],pEC50 [1],melting point
O=C1c2cc(OCc3ccccc3)nn2CCN1c1cccnc1 [Example B12],17%,< 4.52,147.8 °C
N#Cc1cccc(COc2cc3n(n2)CCN(c2ccc(F)cc2)C3=O)c1 [Example B27],31%,6.83,147.9 °C
COc1cccc(COc2cc3n(n2)CCN(c2ccc(F)cc2)C3=O)c1 [Example B33],18%,< 4.52,105.1 °C
O=C1c2cc(OCc3ccc(F)cc3)nn2CCN1c1ccc(F)cc1 [Example B32],18%,< 4.52,155.8 °C
"O=C1c2cc(OCc3ccccc3)nn2CCN1c1cccc(C2CC2)n1 [Example B3, 2-(benzyloxy)-5-(6-cyclopropylpyridin-2-yl)-6,7-dihydropyrazolo[1,5-a]pyrazin-4(5H)-one]",59%,6.95,146.2 °C
C[C@@H]1Cn2nc(OCc3ccccc3)cc2C(=O)N1c1ccc(F)cc1 [Example B9],52%,7.06,229.9 °C
O=C1c2cc(OCc3ccccc3)nn2CCN1CC1CC(F)(F)C1 [Example B71],59%,6.16,–
COc1cccc(CN2CCn3nc(OCc4ccccc4)cc3C2=O)c1F [Example B66],63%,6.44,–
"COc1nccc(N2CCn3nc(OCc4ccccc4)cc3C2=O)n1 [Example B2, 2-(benzyloxy)-5-(2-methoxypyrimidin-4-yl)-6,7-dihydropyrazolo[1,5-a]pyrazin-4(5H)-one]",57%,6.18,160.6 °C
Cc1cccc(COc2cc3n(n2)CCN(c2ccc(F)cc2)C3=O)n1 [Example B36],27%,< 4.52,158.5 °C
COc1cccc(CN2CCn3nc(OCc4ccccc4)cc3C2=O)c1Cl [Example B67],63%,6.94,–
Cc1nc(N2CCCn3nc(OCc4ccccc4)cc3C2=O)ccc1F [Example B51],53%,6.44,114.6 to 116.1 °C
COc1nc(N2CCn3nc(OCc4ccccc4)cc3C2=O)ncc1F [Example B21],55%,6.60,223 °C
Cc1cc(N2CCn3nc(OCc4ccccc4)cc3C2=O)ccc1F [Example B7],47%,6.99,209.8 °C
"O=C1c2cc(OCc3ccccc3)nn2CCCN1CC1CC1 [Example B53, 2-(benzyloxy)-5-(cyclopropylmethyl)-5,6,7,8-tetrahydro-4H-pyrazolo[1,5-a][1,4]diazepin-4-one]",23%,5.88,68.1 to 68.4 °C
"O=C1c2cc(OCc3ccccc3)nn2CCN1CC1CC1 [Example B44, 2-(benzyloxy)-5-(cyclopropylmethyl)-6,7-dihydropyrazolo[1,5-a]pyrazin-4(5H)-one]",26%,≤ 4.52,–
O=C1c2cc(OCc3ccccn3)nn2CCN1c1ccc(F)cc1 [Example B34],23%,< 4.52,–
CC1(CN2CCn3nc(OCc4ccccc4)cc3C2=O)COC1 [Example B55],37%,–,–
O=C1c2cc(OCc3cccnc3)nn2CCN1c1ccc(F)cc1 [Example B35],12%,< 4.52,–
COc1cc(F)cc(CN2CCn3nc(OCc4ccccc4)cc3C2=O)c1 [Example B63],62%,6.19,–
